According to publication PMC11845477, “Exploring the principles behind antibiotics with limited resistance” (Nature Communications, 2025):
Where a SMILES comes first, the peptide text is derived from it. Bridges are numbered along the chain shown (N, C = ends). [ ]: non-standard residue; d: D form. The star is where a group is joined. X2 = CC[C@H](C)CCCCC(=O)*; Dab = NCC[C@H](N)C(=O)O

Tests used:
[1] = tested on: K. pneumoniae ATCC 10031 (SEN) and K. pneumoniae ATCC 700603 (MDR); assay: Adaptive laboratory evolution (ALE), relative MIC of evolved lines; assay type: cell-based, Klebsiella pneumoniae
Method in brief: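 Ten parallel populations per antibiotic–ancestor pair were evolved in MHB at 37 °C, starting near 50% growth-inhibiting drug. Every 72 h they were passaged into 0.5–2.5× increasing concentrations, keeping the highest-drug well with OD600 > 0.2.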

[2] = tested on: K. pneumoniae ATCC 10031 (SEN) and K. pneumoniae ATCC 700603 (MDR); assay: microbe, parasite or virus in culture; assay type: cell-based, Klebsiella pneumoniae; conditions: for MIC: across three biological replicates
Method in brief: (§1)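 Broth microdilution in cation-adjusted Mueller-Hinton Broth 2 (except SCH79797), 11–16-step serial dilutions, 5 × 10^5 cells/mL, 37 °C with shaking for 18 h, 2 replicates. MIC is the lowest concentration giving complete growth inhibition (OD600 < 0.05); relative MIC = MIC evolved/MIC ancestor.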

[3] = tested on: P. aeruginosa ATCC BAA-3107 (SEN) and P. aeruginosa LESB58 (MDR); assay: microbe, parasite or virus in culture; assay type: cell-based, Pseudomonas aeruginosa; conditions: for MIC: across three biological replicates
Method in brief: as §1

[4] = KP-SEN (Klebsiella pneumoniae ATCC 10031), evolved line 1
[5] = KP-SEN (Klebsiella pneumoniae ATCC 10031), evolved line 2
[6] = KP-SEN (Klebsiella pneumoniae ATCC 10031), evolved line 2 adapted to the named antibiotic
[7] = KP-SEN (Klebsiella pneumoniae ATCC 10031), evolved line 3
[8] = KP-SEN (Klebsiella pneumoniae ATCC 10031), evolved line 4
[9] = KP-SEN (Klebsiella pneumoniae ATCC 10031), evolved line 6
[10] = KP-SEN (Klebsiella pneumoniae ATCC 10031), evolved line 6 adapted to the named antibiotic
[11] = KP-SEN (Klebsiella pneumoniae ATCC 10031), evolved line 8
[12] = KP-SEN (Klebsiella pneumoniae ATCC 10031), evolved line 9
[13] = KP-SEN, Klebsiella pneumoniae ATCC 10031, evolved line 5
[14] = KP-SEN, Klebsiella pneumoniae ATCC 10031, evolved line 7
[15] = Klebsiella pneumoniae ATCC 10031 (KP-SEN), ancestor strain, sheet fig 2a
[16] = Klebsiella pneumoniae, Klebsiella pneumoniae ATCC 10031 (KP-SEN)
[17] = Klebsiella pneumoniae, Klebsiella pneumoniae ATCC 700603 (KP-MDR)
[18] = Pseudomonas aeruginosa, ATCCBAA3107, Pseudomonas aeruginosa ATCC BAA-3107 (PA-SEN)
[19] = Pseudomonas aeruginosa, ATCCBAA3107, Pseudomonas aeruginosa LESB 58 (PA-MDR)

## O=c1ccc2ncc(=O)n3c2n1C[C@H]3CN1CCC(NCc2cc3c(cn2)OCCC3)CC1 [Gepotidacin]
[1]; [4]
  Relative MIC: 2048
[1]; [5]
  Relative MIC: 2048
[1]; [6]
  Relative MIC (log10): 3.311
[1]; [7]
  Relative MIC: 1024
[1]; KP-SEN (Klebsiella pneumoniae ATCC 10031), evolved line 3 adapted to the named antibiotic
  Relative MIC (log10): 3.0103
[1]; [8]
  Relative MIC: 1024
[1]; [9]
  Relative MIC: 2048
[1]; [10]
  Relative MIC (log10): 3.311
[1]; KP-SEN (Klebsiella pneumoniae ATCC 10031), evolved line 7 adapted to the named antibiotic
  Relative MIC (log10): 3.311
[1]; [11]
  Relative MIC: 1024
[1]; [12]
  Relative MIC: 1024
[1]; KP-SEN, Klebsiella pneumoniae ATCC 10031, evolved line 1 versus ancestor
  Relative MIC: 2048
[1]; KP-SEN, Klebsiella pneumoniae ATCC 10031, evolved line 2 versus ancestor
  Relative MIC: 2048
[1]; KP-SEN, Klebsiella pneumoniae ATCC 10031, evolved line 3 versus ancestor
  Relative MIC: 1024
[1]; KP-SEN, Klebsiella pneumoniae ATCC 10031, evolved line 4 versus ancestor
  Relative MIC: 1024
[1]; KP-SEN, Klebsiella pneumoniae ATCC 10031, evolved line 5 versus ancestor
  Relative MIC: 1024
[1]; KP-SEN, Klebsiella pneumoniae ATCC 10031, evolved line 6 versus ancestor
  Relative MIC: 2048
[1]; KP-SEN, Klebsiella pneumoniae ATCC 10031, evolved line 7 versus ancestor
  Relative MIC: 2048
[1]; KP-SEN, Klebsiella pneumoniae ATCC 10031, evolved line 8 versus ancestor
  Relative MIC: 1024
[1]; KP-SEN, Klebsiella pneumoniae ATCC 10031, evolved line 9 versus ancestor
  Relative MIC: 1024
[1]; [13]
  Relative MIC: 1024
[1]; [14]
  Relative MIC: 2048
[2]; KP-SEN, Klebsiella pneumoniae ATCC 10031, ancestor strain
  MIC of ancestor: 0.125 µg/mL
[2]; [15]
  MIC of ancestor: 0.125 µg/mL
[2]; [16]
  MIC: 0.125 µg/mL
[2]; [17]
  MIC: 16 µg/mL
[3]; P. aeruginosa ATCC BAA 3107 (PA-SEN), ancestor strain, sheet fig 2a
  MIC of ancestor: 4 µg/mL
[3]; P. aeruginosa LESB 58 (PA-MDR), ancestor strain, sheet fig 2a
  MIC of ancestor: 4 µg/mL
[3]; PA-MDR, Pseudomonas aeruginosa LESB 58, ancestor strain
  MIC of ancestor: 4 µg/mL
[3]; PA-SEN, Pseudomonas aeruginosa ATCC BAA 3107, ancestor strain
  MIC of ancestor: 4 µg/mL
[3]; [18]
  MIC: 4 µg/mL
[3]; [19]
  MIC: 4 µg/mL

## CN(C)c1cc(CNCC(C)(C)C)c(O)c2c1C[C@H]1C[C@H]3[C@H](N(C)C)C(O)=C(C(N)=O)C(=O)[C@@]3(O)C(O)=C1C2=O [Omadacycline]
[1]; [4]
  Relative MIC: 128
[1]; KP-SEN (Klebsiella pneumoniae ATCC 10031), evolved line 1 adapted to the named antibiotic
  Relative MIC (log10): 2.107
[1]; [5]
  Relative MIC: 128
[1]; [6]
  Relative MIC (log10): 2.107
[1]; [7]
  Relative MIC: 64
[1]; [8]
  Relative MIC: 64
[1]; KP-SEN (Klebsiella pneumoniae ATCC 10031), evolved line 5 adapted to the named antibiotic
  Relative MIC (log10): 2.107
[1]; [9]
  Relative MIC: 128
[1]; [10]
  Relative MIC (log10): 2.107
[1]; [11]
  Relative MIC: 64
[1]; [12]
  Relative MIC: 128
[1]; KP-SEN (Klebsiella pneumoniae ATCC 10031), evolved line 9 adapted to the named antibiotic
  Relative MIC (log10): 2.107
[1]; KP-SEN (Klebsiella pneumoniae ATCC 10031), evolved line 10
  Relative MIC: 128
[1]; KP-SEN ATCC 10031, evolved line 1, evolved line vs ancestor
  Relative MIC: 128
[1]; KP-SEN ATCC 10031, evolved line 2, evolved line vs ancestor
  Relative MIC: 128
[1]; KP-SEN ATCC 10031, evolved line 3, evolved line vs ancestor
  Relative MIC: 64
[1]; KP-SEN ATCC 10031, evolved line 4, evolved line vs ancestor
  Relative MIC: 64
[1]; KP-SEN ATCC 10031, evolved line 5, evolved line vs ancestor
  Relative MIC: 128
[1]; KP-SEN ATCC 10031, evolved line 6, evolved line vs ancestor
  Relative MIC: 128
[1]; KP-SEN ATCC 10031, evolved line 7, evolved line vs ancestor
  Relative MIC: 32
[1]; KP-SEN ATCC 10031, evolved line 8, evolved line vs ancestor
  Relative MIC: 64
[1]; KP-SEN ATCC 10031, evolved line 9, evolved line vs ancestor
  Relative MIC: 128
[1]; KP-SEN ATCC 10031, evolved line 10, evolved line vs ancestor
  Relative MIC: 128
[1]; [13]
  Relative MIC: 128
[1]; [14]
  Relative MIC: 32
[2]; Klebsiella pneumoniae ATCC 10031 (KP-SEN), ancestor
  MIC of ancestor: 1 µg/mL
[2]; [15]
  MIC of ancestor: 1 µg/mL
[2]; [16]
  MIC: 1 µg/mL
[2]; [17]
  MIC: > 32 µg/mL
[3]; [18]
  MIC: > 32 µg/mL
[3]; [19]
  MIC: > 32 µg/mL

## CC[C@H](C)CCCCC(=O)N[C@@H](CCN)C(=O)N[C@H](C(=O)N[C@@H](CCN)C(=O)N[C@H]1CCNC(=O)[C@H]([C@@H](C)O)NC(=O)[C@H](CCN)NC(=O)[C@H](CCN)NC(=O)[C@H](CC(C)C)NC(=O)[C@@H](Cc2ccccc2)NC(=O)[C@H](CCN)NC1=O)[C@@H](C)O [Polymyxin B] (X2-[Dab]T[Dab][Dab][Dab][dF]L[Dab][Dab]T; lactam 4-C (inferred); N-terminus assumed)
[1]; KP-MDR (Klebsiella pneumoniae ATCC 700603), evolved line 3
  Relative MIC (log10): 2.408 log10
[1]; KP-MDR (Klebsiella pneumoniae ATCC 700603), evolved line 5
  Relative MIC (log10): 2.408 log10
[1]; KP-MDR (Klebsiella pneumoniae ATCC 700603), evolved line 6
  Relative MIC (log10): 2.408 log10
[1]; KP-MDR (Klebsiella pneumoniae ATCC 700603), evolved line 9
  Relative MIC (log10): 2.408 log10
[1]; KP-MDR (Klebsiella pneumoniae ATCC 700603), evolved line 10
  Relative MIC (log10): 2.408 log10
[1]; [4]
  Relative MIC (log10): 2.408 log10
[1]; [5]
  Relative MIC (log10): 2.709 log10
[1]; [7]
  Relative MIC (log10): 2.709 log10
[1]; [12]
  Relative MIC (log10): 2.709 log10
[1]; [13]
  Relative MIC (log10): 2.709 log10
[2]; Klebsiella pneumoniae ATCC 10031 (KP-SEN)
  MIC: 2 µg/mL
[2]; Klebsiella pneumoniae ATCC 700603 (KP-MDR)
  MIC: 1 µg/mL
[3]; Pseudomonas aeruginosa ATCC BAA-3107 (PA-SEN)
  MIC: 1 µg/mL
[3]; Pseudomonas aeruginosa LESB 58 (PA-MDR)
  MIC: 2 µg/mL
